# Assay results reported in patent US20230039099A1, “AKT INHIBITORS FOR ENHANCING CHIMERIC T CELL PERSISTENCE” (H. Lee Moffitt Cancer Center and Research Institute, Inc., priority 2019, published 2023).
# How the values were obtained:
# CAR T cells = experiment: CAR T cell memory phenotype by flow cytometry (LSRII), TCN added during CAR T cell production; assay type: cell-based, human; conditions: healthy donor PBMC T cells; TCN added on day 2 before first spin transduction; flow cytometry on day 7
# Description: FIGS. 1A to 1G show TCN increases central memory CAR T cell population. T cells were isolated from healthy donor PBMCs using negative selection. TCN was added on day 2 before the first spin transduction. On day 7 cells were stained for flow cytometry and run on an LSRII.
# T cells were isolated from healthy donor PBMCs using negative selection. TCN was added on day 2 before the first spin transduction. On day 7 cells were stained for flow cytometry and run on an LSRII.
# For the anti-human CD19 constructs the SFG backbone was modified to include the FMC63 ScFv with a CD8a trans-membrane and hinge domain followed by either CD28 or 4-1BB, and CD3. All SFG constructs were calcium phosphate transfected into H29 cells. Retroviral supernatants of transfected H29 were harvested and used to transduce Phoenix E or RD114 cells. Retroviral supernatant of producer cells was harvested, 0.45 μm filtered, and used to transduce T cells as described. Viability was measured by trypan blue staining and enumerated on an automated cell counter (Bio-Rad). Transduction efficiency was estimated by flow cytometry as a percentage of protein L+ live cells. For downstream experiments CAR T cell doses were normalized based on CAR gene transfer but not sorted to exclude CAR-negative T cells. As a result, total T cell dose was varied.
# h19BBz CAR T cells [1] = experiment: Cytokine secretion of h19BBz CAR T cells stimulated with target cells for 24 hrs (Ella); assay type: cell-based, human; conditions: healthy donor T cells; TCN added on day 2; target cell stimulation 24 hrs; supernatant run on Ella
# Description: (§1) T cells were isolated from healthy donor PBMCs using negative selection. TCN was added on day 2 before the first spin transduction. To measure real time cell killing CAR T cells were stimulated with 3T3-hCD19 target cells using an xCelligence RTCA machine. To measure cytokine secretion CAR T cells were stimulated with target cells for 24 hrs. Supernatant was then collected and run using Ella to measure cytokines. […] T cells were isolated from healthy donor PBMCs using negative selection. TCN was added on day 2 before the first spin transduction. To measure real time cell killing CAR T cells were stimulated with 3T3-hCD19 target cells using an xCelligence RTCA machine. To measure cytokine secretion CAR T cells were stimulated with target cells for 24 hrs. Supernatant was then collected and run using Ella to measure cytokines.
# p-Akt = p-Akt western blot in m1928z CAR T cells stimulated with 3T3-mCD19 targets; assay type: cell-based, mouse (C57BL6); conditions: C57BL6 splenocyte T cells, TCN added on day 2, day 5 stimulation with 3T3-mCD19 targets for 24 hrs
# Description: T cells were isolated from C57BL6 splenocyes using negative selection. TCN was added on day 2 before the first spin transduction. On day 5 CAR T cells were stimulated with 3T3-mCD19 targets for 24 hrs. After stimulation cells were lysed and run by western blot. […] T cells were isolated from C57BL6 splenocyes using negative selection. TCN was added on day 2 before the first spin transduction. On day 5 CAR T cells were stimulated with 3T3-mCD19 targets for 24 hrs. After stimulation cells were lysed and run by western blot.
# h19BBz CAR T cells [2] = experiment: Real time cell killing of 3T3-hCD19 target cells by h19BBz CAR T cells (xCelligence RTCA); assay type: cell-based, human; conditions: healthy donor T cells, TCN added on day 2
# Description: as §1
# T cells = experiment: Toxicity of TCN for T cells; assay type: cell-based; conditions: human healthy donor T cells, in vitro
# Description: Previous studies have shown drugs given during CART cell production can influence their function. To determine the effect of TCN human healthy donor T cells are treated with TCN prior to CAR transduction. 10 μM of TCN is used because it is the highest non-toxic dose for T cells. After transduction and proliferation in culture in vitro assays are preformed to determine CAR T cell function. These include cytotoxicity, cytokine secretion, RNA-seq, polyfunctional strength index, and CAR T cell phenotype. We next evaluate the function of CAR T cells given TCN during production in vivo. A total of 60 NSG mice are given the human B cell tumor cell line NALM6 containing luciferase on day −7. On day 0, 10 mice per group will be given untransduced, h1928z, or h19BBz CAR T cells produced with or without TCN. Bioluminescence imaging is used to determine tumor burden and measure overall survival.
smiles,measurement,setting,value
"CN1N=C(N)c2cn([C@@H]3O[C@H](COP(=O)(O)O)[C@@H](O)[C@H]3O)c3ncnc1c23 [TCN, Triciribine]",central memory CAR T cell population,CAR T cells,increases
same,effector memory CAR T cell population,CAR T cells,increases
same,h19BBz CAR cytokine secretion,h19BBz CAR T cells [1],reduces
same,p-Akt in m1928z CAR T cells,p-Akt,inhibits
same,h19BBz CAR killing,h19BBz CAR T cells [2],reduces
same,highest non-toxic dose for T cells,T cells,10 µM
